For 30 compounds, IC50 results are on record in patent publication US12617773B2, “Azetidin-3-ylmethanol derivatives as CCR6 receptor modulators” (Idorsia Pharmaceuticals Ltd, priority 2020, dated 2026).

This assay concerns the target T1, human CCR6 (Homo sapiens, UniProt P51684).
T1 construct: expressed in transfected cells; host or cells: HEK-293
T1 sequence (P51684 1-374): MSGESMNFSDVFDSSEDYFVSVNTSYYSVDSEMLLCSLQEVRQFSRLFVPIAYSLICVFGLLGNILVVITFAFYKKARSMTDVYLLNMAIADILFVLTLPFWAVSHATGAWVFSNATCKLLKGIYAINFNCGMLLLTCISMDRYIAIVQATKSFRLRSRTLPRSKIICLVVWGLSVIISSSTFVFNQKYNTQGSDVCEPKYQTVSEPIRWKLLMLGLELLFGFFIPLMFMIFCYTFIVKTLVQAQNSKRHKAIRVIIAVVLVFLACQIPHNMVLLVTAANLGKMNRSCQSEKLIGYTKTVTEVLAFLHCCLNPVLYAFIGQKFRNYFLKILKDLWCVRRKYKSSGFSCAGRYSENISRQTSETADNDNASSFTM
The experiment in a line: FLIPR assay (inhibition of CCL20-induced calcium signal). Format: cell-based. As to conditions: HEK-293 cells expressing human CCR6; mean values where determined several times; read-out: FLIPR IC50. Put shortly: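 IC50 values come from baseline-corrected peak calcium fluorescence after agonist. The agonist was CCL20 at 10 nM final, added to engineered human CCR6 HEK-293 cells following a 30-min, room-temperature, dark preincubation with serially diluted compound. Readings were taken in a fluorometric imaging plate reader.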
Regarding `CC(C)c1ccc([C@](O)(c2cnnc(N3Cc4ccccc4C3=O)c2)C2(C)CN(C)C2)cc1` [Example 444], the half-maximal inhibitory concentration (IC50) was 33.4 nM.

With `CC(C)c1ccc([C@](O)(c2cncc(-c3noc(C(C)(C)O)n3)c2)C2(F)CN(C)C2)cc1` [Example 445, 2-(3-{5-[(S)-(3-Fluoro-1-methyl-azetidin-3-yl)-hydroxy-(4-isopropyl-phenyl)-methyl]-pyridin-3-yl}-[1,2,4]oxadiazol-5-yl)-propan-2-ol], the IC50 worked out at 44.8 nM.

Take `CC(C)c1ccc([C@](O)(c2cncc(-c3noc(C(C)(C)O)n3)c2)C2(F)CN(C3CC3)C2)cc1` [Example 446, 2-(3-{5-[(S)-(1-Cyclopropyl-3-fluoro-azetidin-3-yl)-hydroxy-(4-isopropyl-phenyl)-methyl]-pyridin-3-yl}-[1,2,4]oxadiazol-5-yl)-propan-2-ol]: the IC50 came to 48.4 nM.

Regarding `CC(=O)N1CCC(c2nc(-c3cncc([C@@](O)(c4ccc(C(C)C)cc4)C4(F)CN(C)C4)c3)no2)CC1` [Example 447, 1-[4-(3-{5-[(S)-(3-Fluoro-1-methyl-azetidin-3-yl)-hydroxy-(4-isopropyl-phenyl)-methyl]-pyridin-3-yl}-[1,2,4]oxadiazol-5-yl)-piperidin-1-yl]-ethanone], the IC50 came out at 43.2 nM.

On to `CC(=O)N1CCC(c2nc(-c3cncc([C@@](O)(c4ccc(C(C)C)cc4)C4(F)CN(C5CC5)C4)c3)no2)CC1` [Example 448, 1-[4-(3-{5-[(S)-(1-Cyclopropyl-3-fluoro-azetidin-3-yl)-hydroxy-(4-isopropyl-phenyl)-methyl]-pyridin-3-yl}-[1,2,4]oxadiazol-5-yl)-piperidin-1-yl]-ethanone], for which the IC50 came to 35.2 nM.

`CC(C)c1ccc([C@](O)(c2cncc(-c3noc(C(C)(C)O)n3)c2)C2(C)CN(C3CC3)C2)cc1` [Example 449, 2-(3-{5-[(R)-(1-Cyclopropyl-3-methyl-azetidin-3-yl)-hydroxy-(4-isopropyl-phenyl)-methyl]-pyridin-3-yl}-[1,2,4]oxadiazol-5-yl)-propan-2-ol]: the IC50 turned out to be 40.8 nM.

In the case of `CC(=O)N1CCC(c2nc(-c3cncc([C@@](O)(c4ccc(C(C)C)cc4)C4(C)CN(C5CC5)C4)c3)no2)CC1` [Example 450], the IC50 was found to be 57.8 nM.

For the compound `CC(C)c1ccc([C@](O)(c2cncc(-c3noc(C4CCOCC4)n3)c2)C2(C)CN(C3CC3)C2)cc1` [Example 451], the IC50 was found to be 43.5 nM.

For the compound `CC(C)c1ccc([C@](O)(c2cncc(-c3noc([C@H]4CC[C@H](O)CC4)n3)c2)C2(C)CN(C3CC3)C2)cc1` [Example 452], the IC50 came to 33.6 nM.

For `CC(C)c1ccc([C@](O)(c2cncc(-c3noc(C4COC4)n3)c2)C2(C)CN(C3CC3)C2)cc1` [Example 453], the IC50 amounted to 58.1 nM.

With `CC(=O)N1CC[C@H](Cc2nc(-c3cncc([C@@](O)(c4ccc(C(C)C)cc4)C4(C)CN(C)C4)c3)no2)C1` [Example 454, 1-[(R)-3-(3-{5-[(R)-(1,3-Dimethyl-azetidin-3-yl)-hydroxy-(4-isopropyl-phenyl)-methyl]-pyridin-3-yl}-[1,2,4]oxadiazol-5-ylmethyl)-pyrrolidin-1-yl]-ethanone], the IC50 was 103 nM.

Consider `CC(=O)N1CCCC(c2nc(-c3cncc([C@@](O)(c4ccc(C(C)C)cc4)C4(C)CN(C)C4)c3)no2)C1` (stereo partly drawn) [Example 455], for which the half-inhibitory concentration (IC50) is 83.1 nM.

Consider `CC(=O)N1CCCC(O)(c2nc(-c3cncc([C@@](O)(c4ccc(C(C)C)cc4)C4(C)CN(C)C4)c3)no2)C1` (stereo partly drawn) [Example 456], for which the IC50 worked out at 201 nM.

With `CC(=O)N1CCCC(C)(c2nc(-c3cncc([C@@](O)(c4ccc(C(C)C)cc4)C4(C)CN(C)C4)c3)no2)C1` (stereo partly drawn) [Example 457], the IC50 was determined as 56.4 nM.

For `CC(=O)N1CCCC(Cc2nc(-c3cncc([C@@](O)(c4ccc(C(C)C)cc4)C4(C)CN(C)C4)c3)no2)C1` (stereo partly drawn) [Example 458], the IC50 was determined as 99 nM.

On to `CC(=O)N1CCC(O)(Cc2nc(-c3cncc([C@@](O)(c4ccc(C(C)C)cc4)C4(C)CN(C)C4)c3)no2)CC1` [Example 459], for which the IC50 came to 440 nM.

Take `CC(=O)NC1(Cc2nc(-c3cncc([C@@](O)(c4ccc(C(C)C)cc4)C4(C)CN(C)C4)c3)no2)CC1` [Example 460, N-[1-(3-{5-[(R)-(1,3-Dimethyl-azetidin-3-yl)-hydroxy-(4-isopropyl-phenyl)-methyl]-pyridin-3-yl}-[1,2,4]oxadiazol-5-ylmethyl)-cyclopropyl]-acetamide]: the IC50 came out at 469 nM.

Turning to `CC(C)c1ccc([C@](O)(c2cncc(-c3noc(CC4(NC(=O)C5CCOCC5)CC4)n3)c2)C2(C)CN(C)C2)cc1` [Example 461], the IC50 amounted to 384 nM.

For the compound `COCC(=O)NC1(Cc2nc(-c3cncc([C@@](O)(c4ccc(C(C)C)cc4)C4(C)CN(C)C4)c3)no2)CC1` [Example 462], the IC50 turned out to be 286 nM.

On to `CC(=O)N(C)C1(Cc2nc(-c3cncc([C@@](O)(c4ccc(C(C)C)cc4)C4(C)CN(C)C4)c3)no2)CC1` [Example 463, N-[1-(3-{5-[(R)-(1,3-Dimethyl-azetidin-3-yl)-hydroxy-(4-isopropyl-phenyl)-methyl]-pyridin-3-yl}-[1,2,4]oxadiazol-5-ylmethyl)-cyclopropyl]-N-methyl-acetamide], for which the IC50 turned out to be 122 nM.

As for `CCC(=O)NC(C)(C)Cc1nc(-c2cncc([C@@](O)(c3ccc(C(C)C)cc3)C3(C)CN(C)C3)c2)no1` [Example 464, N-[2-(3-{5-[(R)-(1,3-Dimethyl-azetidin-3-yl)-hydroxy-(4-isopropyl-phenyl)-methyl]-pyridin-3-yl}-[1,2,4]oxadiazol-5-yl)-1,1-dimethyl-ethyl]-propionamide], the IC50 was determined as 129 nM.

For `COCC(=O)NC(C)(C)Cc1nc(-c2cncc([C@@](O)(c3ccc(C(C)C)cc3)C3(C)CN(C)C3)c2)no1` [Example 465], the IC50 was 87.5 nM.

Regarding `CC(C)c1ccc([C@](O)(c2cncc(-c3noc(CC(C)(C)NC(=O)C4CCOCC4)n3)c2)C2(C)CN(C)C2)cc1` [Example 466], the IC50 came to 143 nM.

As for `CC(C)C(=O)NC(C)(C)Cc1nc(-c2cncc([C@@](O)(c3ccc(C(C)C)cc3)C3(C)CN(C)C3)c2)no1` [Example 467], the IC50 came out at 129 nM.

Take `CC(C)c1ccc([C@](O)(c2cncc(-c3noc(CC(C)(C)NC(=O)C4CC4)n3)c2)C2(C)CN(C)C2)cc1` [Example 468]: the IC50 was 62.3 nM.

Take `CC(=O)N1CC[C@H](c2nc(-c3cncc([C@@](O)(c4ccc(C(C)C)cc4)C4(C)CN(C)C4)c3)no2)C[C@@H]1C` [Example 469]: the IC50 is 137 nM.

With `CC(C)C(=O)N1CCC(O)(c2nc(-c3cncc([C@@](O)(c4ccc(C(C)C)cc4)C4(C)CN(C)C4)c3)no2)CC1` [Example 470], the IC50 stood at 131 nM.

Turning to `CCC(=O)N1CCC(O)(c2nc(-c3cncc([C@@](O)(c4ccc(C(C)C)cc4)C4(C)CN(C)C4)c3)no2)CC1` [Example 471], the IC50 came out at 125 nM.

Turning to `COC1(c2nc(-c3cncc([C@@](O)(c4ccc(C(C)C)cc4)C4(C)CN(C)C4)c3)no2)CCN(C(C)=O)CC1` [Example 472], the IC50 is 79.8 nM.

`CC(C)c1ccc([C@](O)(c2cncc(-c3noc(C4CCN(C(=O)CC(F)(F)F)CC4)n3)c2)C2(C)CN(C)C2)cc1` [Example 473, 1-[4-(3-{5-[(R)-(1,3-Dimethyl-azetidin-3-yl)-hydroxy-(4-isopropyl-phenyl)-methyl]-pyridin-3-yl}-[1,2,4]oxadiazol-5-yl)-piperidin-1-yl]-3,3,3-trifluoro-propan-1-one]: the IC50 worked out at 77.6 nM.
